Data reported in patent US20220175754A1, “P97 INHIBITORS FOR TREATING CANCER AND NEURODEGENERATIVE DISORDERS” (Lundquist Institute for Biomedical Innovation at …, priority 2018, published 2022).
Read-outs that look alike come from different tables or passages of the source.

Experiments:
P97 = P97 (Homo sapiens, UniProt P55072); assay: P97 Biomolgreen ATPase assay, 200 μM ATP; type: biochemical
Excerpt: The following Table IV provides relevant results. The compound number in Table IV correlates to the numbered compounds in Table III.

MDA-MB-231 = assay: Anti-proliferative activity, MDA-MB-231; type: cell-based; conditions: Homo sapiens, Breast, read-out: Anti-proliferative activity (μM) of NMS-873
Method: (§1) Cells were seeded on a 384-well solid white plate (5,000 cells/well). Cells were transfected with luciferase siRNA or p97 siRNA (10 nM) for 48 h or treated with compounds for the indicated amount of time. […] Cellular viability was determined with Cell-Titer-Glo reagent (Promega). […] IC50 values were calculated from fitting the percentage of luminescence signal normalized to DMSO treated cells).

MDA-MB-468 = assay: Anti-proliferative activity, MDA-MB-468; type: cell-based; conditions: Homo sapiens, Breast, read-out: Anti-proliferative activity (μM) of NMS-873
Method: as §1

MCF-7 = assay: Anti-proliferative activity, MCF-7; type: cell-based; conditions: Homo sapiens, MCF7, Breast, read-out: Anti-proliferative activity (μM) of NMS-873
Method: as §1

HCT15 = assay: Anti-proliferative activity, HCT15; type: cell-based; conditions: Homo sapiens, HCT-15, Colon, read-out: Anti-proliferative activity (μM) of NMS-873
Method: as §1

HCT116 = assay: Anti-proliferative activity, HCT116; type: cell-based; conditions: Homo sapiens, HCT-116, Colon, read-out: Anti-proliferative activity (μM) of NMS-873
Method: as §1

SW620 = assay: Anti-proliferative activity, SW620; type: cell-based; conditions: Homo sapiens, SW-620, Colon, read-out: Anti-proliferative activity (μM) of NMS-873
Molt4 = assay: Anti-proliferative activity, Molt4; type: cell-based; conditions: Homo sapiens, MOLT-4, blood cancer, read-out: Anti-proliferative activity (μM) of NMS-873
CCRF-CEM = assay: Anti-proliferative activity, CCRF-CEM; type: cell-based; conditions: Homo sapiens, blood cancer, read-out: Anti-proliferative activity (μM) of NMS-873
RPMI8226 = assay: Anti-proliferative activity, RPMI8226; type: cell-based; conditions: Homo sapiens, RPMI-8226, Multiple Myeloma, read-out: Anti-proliferative activity (μM) of NMS-873
A375 (BRAFV600E) = assay: Anti-proliferative activity, A375; type: cell-based; conditions: Homo sapiens, A-375, skin cancer, read-out: Anti-proliferative activity (μM) of NMS-873
SKMel2 (NRASQ61R) = assay: Anti-proliferative activity, SKMel2; type: cell-based; conditions: Homo sapiens, SK-MEL-2, skin cancer, read-out: Anti-proliferative activity (μM) of NMS-873
Method: (§2) Cells were seeded on a 384-well solid white plate (5,000 cells/well). Cells were transfected with luciferase siRNA or p97 siRNA (10 nM) for 48 h or treated with compounds for the indicated amount of time. Caspase-3/7 Glo, caspase-6 Glo, caspase-8 Glo, or caspase-9 Glo (Promega) was added into each well and mixed by shaking at 500 rpm for 1 min. Luminescence signal was determined after incubation at room temperature for 1 h. Cellular viability was determined with Cell-Titer-Glo reagent (Promega). […] IC50 values were calculated from fitting the percentage of luminescence signal normalized to DMSO treated cells).

SKMel5 (BRAFV600E) = assay: Anti-proliferative activity, SKMel5; type: cell-based; conditions: Homo sapiens, SK-MEL-5, skin cancer, read-out: Anti-proliferative activity (μM) of NMS-873
Method: as §2

LoxIMVI (BRAFV600E) = assay: Anti-proliferative activity, LoxIMVI; type: cell-based; conditions: Homo sapiens, LOX IMVI, skin cancer, read-out: Anti-proliferative activity (μM) of NMS-873
Method: as §2

WM3918 (BRAF/NRAS WT) = assay: Anti-proliferative activity, WM3918; type: cell-based; conditions: skin cancer, read-out: Anti-proliferative activity (μM) of NMS-873
Method: as §2

PANC-1 = assay: Anti-proliferative activity, PANC-1; type: cell-based; conditions: Homo sapiens, Pancreatic cancers, read-out: Anti-proliferative activity (μM) of NMS-873
Method: as §2

BxPC-3 = assay: Anti-proliferative activity, BxPC-3; type: cell-based; conditions: Homo sapiens, Pancreatic cancers, read-out: Anti-proliferative activity (μM) of NMS-873
Method: as §2

A549 = assay: Anti-proliferative activity, A549; type: cell-based; conditions: Homo sapiens, Lung Cancer, read-out: Anti-proliferative activity (μM) of NMS-873
Method: as §2

[1] = read-out: P97 Biomolgreen, IC50

Chain of P97 (P55072 whole entry): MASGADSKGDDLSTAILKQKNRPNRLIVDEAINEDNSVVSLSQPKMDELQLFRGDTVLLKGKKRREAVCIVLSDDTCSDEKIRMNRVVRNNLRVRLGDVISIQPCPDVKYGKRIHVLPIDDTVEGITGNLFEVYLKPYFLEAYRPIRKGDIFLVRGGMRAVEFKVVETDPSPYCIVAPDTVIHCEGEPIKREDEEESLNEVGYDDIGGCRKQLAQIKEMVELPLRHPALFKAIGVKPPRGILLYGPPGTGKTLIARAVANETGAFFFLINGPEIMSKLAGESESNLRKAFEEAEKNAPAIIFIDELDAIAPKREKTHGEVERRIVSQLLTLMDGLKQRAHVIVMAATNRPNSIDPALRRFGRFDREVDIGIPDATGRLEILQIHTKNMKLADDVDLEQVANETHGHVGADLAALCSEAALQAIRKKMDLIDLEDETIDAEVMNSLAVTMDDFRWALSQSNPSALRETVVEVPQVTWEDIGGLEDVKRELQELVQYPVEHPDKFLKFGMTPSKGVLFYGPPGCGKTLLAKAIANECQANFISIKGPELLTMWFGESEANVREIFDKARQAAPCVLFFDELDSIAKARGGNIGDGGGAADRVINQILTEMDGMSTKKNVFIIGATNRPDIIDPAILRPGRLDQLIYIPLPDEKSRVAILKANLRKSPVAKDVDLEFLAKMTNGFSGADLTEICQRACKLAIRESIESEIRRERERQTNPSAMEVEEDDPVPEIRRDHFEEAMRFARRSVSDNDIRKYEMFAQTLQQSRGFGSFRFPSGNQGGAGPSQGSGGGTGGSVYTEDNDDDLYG

Q: `COC(C)NCC#Cc1ccc(OCc2nnc(SC3CCCC3)n2-c2cccnc2)cc1C` (stereo not shown) [Compound 12] was tested. Which IC50 (P97) did it give?
A: Its IC50 is 29 nM.

Q: Which IC50 (P97) does the source give for `[2H]C1([2H])C([2H])([2H])C([2H])([2H])C([2H])(Sc2nnc(COc3ccc(C#CC(C)OC(=O)NCCN4CCN(C(C)C)CC4)c(C)c3)n2-c2cccnc2)C1([2H])[2H]` (stereo not shown) [Compound 42] here?
A: The IC50 was 130 nM.

Q: Which IC50 (P97) does the source give for `Cc1cc(OCc2nnc(SC3CCCC3)n2-c2cccnc2)ccc1C#CCNC(=O)OC(C)(C)C` [Compound 49] here?
A: The IC50 was 260 nM.

Q: Which IC50 (P97; [1]) does the source give for `C#Cc1ccc(OCc2nnc(CC3CC3)n2-c2cccnc2)cc1C` [Compound 55] here?
A: The IC50 was 5300 nM.

Q: Which IC50 (P97) does the source give for `N#Cc1ccc(C#CCOCc2nnc(SC3CCCC3)n2-c2cccnc2)cc1` [Compound 56] here?
A: The IC50 was over 6700 nM.

Q: With `Cc1cc(OCc2nnc(SC3C=CCCC3)n2-c2cccnc2)ccc1C#CCOC1CCCCO1` (stereo not shown) [Compound 57] as the compound, how does the IC50 (P97; [1]) read?
A: The IC50 was 110 nM.

Q: `Cc1cc(OCc2nnc(SC3C=CCCC3)n2-c2cccnc2)ccc1C#CCOC(=O)NCCN1CCN(C(C)C)CC1` (stereo not shown) [Compound 71] was tested. Which IC50 (P97) did it give?
A: The IC50 was 26 nM.

Q: For `Cc1cc(OCc2nnc(SC3C=CCCC3)n2-c2cccnc2)ccc1C#CCOC(=O)NC1CCN(C)CC1` (stereo not shown) [Compound 75], which IC50 (P97) is on record?
A: The IC50 was 25 nM.

Q: `OCC#Cc1ccc(OCc2nnc(SC3C=CCCC3)n2-c2cccnc2)cc1` (stereo not shown) [Compound 91] was tested. Which IC50 (P97; [1]) did it give?
A: Its IC50 is 32 nM.

Q: Which IC50 (P97) does the source give for `[2H]C1([2H])C([2H])([2H])C([2H])([2H])C([2H])(Sc2nnc(COc3ccc(C#CCNC4CCN(C)CC4)c(C)c3)n2-c2cccnc2)C1([2H])[2H]` [Compound 96] here?
A: Its IC50 is 67 nM.

Q: How did the IC50 (P97) turn out when `Cc1cc(OCc2nnc(SC3C=CCCC3)n2-c2cccnc2)ccc1C#CCOC(=O)N1CCN(C)CC1` (stereo not shown) [Compound 108] was run?
A: The IC50 was 15 nM.

Q: Which IC50 (P97) does the source give for `Cc1cc(OCc2nnc(SC3CCCC3)n2-c2cccnc2)ccc1C#CCOC(=O)NCCNC(=O)CC1C2CC3CC(C2)CC1C3` (stereo not shown) [Compound 110] here?
A: Its IC50 is 60 nM.

Q: How did the IC50 (P97) turn out when `Cc1cc(OCc2nnc(SC3CCCC3)n2-c2cccnc2)ccc1C#CCOC(=O)NCCOCCNC(=O)CC1C2CC3CC(C2)CC1C3` (stereo not shown) [Compound 111] was run?
A: Its IC50 is 30 nM.

Q: `[2H]C1([2H])C([2H])([2H])C([2H])([2H])C([2H])(Sc2nnc(COc3ccc(C#CCO)c(C)c3)n2-c2cccnc2)C1([2H])[2H]` [Compound 117] was tested. Which IC50 (P97) did it give?
A: The IC50 was 990 nM.

Q: For `CN1CCC(NC(=O)OCC#Cc2ccc(OCc3nnc(SC4C=CCCC4)n3-c3cccnc3)cc2C#N)CC1` (stereo not shown) [Compound 121], which IC50 (P97; [1]) is on record?
A: Its IC50 is 30 nM.

Q: With `CCC(=O)NCC#Cc1ccc(OCc2nnc(SCC3CO3)n2-c2cccnc2)cc1C` (stereo not shown) [Compound 129] as the compound, how does the “P97 Biomolgreen; 200 μM ATP; IC50 (μM)” value (P97) read?
A: Its value is “Not active”.

Q: For `CCC(=O)NCC#Cc1ccc(OCc2nnc(SC[C@@]3(C)CO3)n2-c2cccnc2)cc1C` [Compound 130], which “P97 Biomolgreen; 200 μM ATP; IC50 (μM)” value (P97) is on record?
A: The value was “Not active”.

Q: What does the source list for `Cc1cc(OCc2nnc(SC3CCCC3)n2-c2cccnc2)ccc1-c1ccc(S(C)(=O)=O)cc1` [NMS-873]?
A: IC50 (MDA-MB-231): 2.95 µM; IC50 (MDA-MB-468): 1.36 µM; IC50 (MCF-7): 3.07 µM; IC50 (HCT15): 2.1 µM; IC50 (HCT116): 1.2 µM; IC50 (SW620): 2.6 µM; IC50 (Molt4): 0.92 µM; IC50 (CCRF-CEM): 0.1 µM; IC50 (RPMI8226): 0.08 µM; IC50 (A375 (BRAFV600E)): 2.27 µM; IC50 (SKMel2 (NRASQ61R)): 3.04 µM; IC50 (SKMel5 (BRAFV600E)): 1.95 µM; IC50 (LoxIMVI (BRAFV600E)): 0.65 µM; IC50 (WM3918 (BRAF/NRAS WT)): 2.35 µM; IC50 (PANC-1): 5 µM; IC50 (BxPC-3): 2.5 µM; IC50 (A549): 2.2 µM
